Reference: PubChem BioAssay (NCI)
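The compound was tested at five concentrations on cells cultured in 96-well plates, with a 48-hour exposure period. TGI: concentration producing complete growth inhibition.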

Legend:
Test in all cases: NCI tumour cell line growth inhibition, 48 h
ACHN renal = system: ACHN renal
SK-MEL-5 melanoma = system: SK-MEL-5 melanoma
HCC-2998 colon = system: HCC-2998 colon
MOLT-4 leukemia = system: MOLT-4 leukemia
SW-620 colon = system: SW-620 colon
OVCAR-5 ovarian = system: OVCAR-5 ovarian
DMS 273 small cell lung = system: DMS 273 small cell lung
786-0 renal = system: 786-0 renal
EKVX NSCLC = system: EKVX NSCLC
NCI-H460 lung = system: NCI-H460 lung
CCRF-CEM leukemia = system: CCRF-CEM leukemia
LXFL 529 NSCLC = system: LXFL 529 NSCLC
MALME-3M melanoma = system: MALME-3M melanoma
UO-31 renal = system: UO-31 renal
HT29 colon = system: HT29 colon
XF 498 CNS = system: XF 498 CNS
SK-OV-3 ovarian = system: SK-OV-3 ovarian
HCT-15 colon = system: HCT-15 colon
SN12C renal = system: SN12C renal
IGROV1 ovarian = system: IGROV1 ovarian
TK-10 renal = system: TK-10 renal
NCI-H226 lung = system: NCI-H226 lung
M14 melanoma = system: M14 melanoma
HCT-116 colon = system: HCT-116 colon
KM20L2 colon = system: KM20L2 colon
M19-MEL melanoma = system: M19-MEL melanoma
A549 NSCLC = system: A549 NSCLC
RXF-631 renal = system: RXF-631 renal
COLO 205 colon = system: COLO 205 colon
SF-295 CNS = system: SF-295 CNS
U251 CNS = system: U251 CNS
HOP-18 NSCLC = system: HOP-18 NSCLC
SNB-78 CNS = system: SNB-78 CNS
NCI-H23 lung = system: NCI-H23 lung
SF-539 CNS = system: SF-539 CNS
HL-60(TB) leukemia = system: HL-60(TB) leukemia
SNB-19 CNS = system: SNB-19 CNS
UACC-62 melanoma = system: UACC-62 melanoma
DMS 114 small cell lung = system: DMS 114 small cell lung
SF-268 CNS = system: SF-268 CNS
KM12 colon = system: KM12 colon
LOX IMVI melanoma = system: LOX IMVI melanoma
DLD-1 colon = system: DLD-1 colon
SK-MEL-2 melanoma = system: SK-MEL-2 melanoma
SNB-75 CNS = system: SNB-75 CNS
SK-MEL-28 melanoma = system: SK-MEL-28 melanoma
HOP-62 NSCLC = system: HOP-62 NSCLC
OVCAR-8 ovarian = system: OVCAR-8 ovarian
K-562 leukemia = system: K-562 leukemia
OVCAR-3 ovarian = system: OVCAR-3 ovarian
HOP-92 NSCLC = system: HOP-92 NSCLC
UACC-257 melanoma = system: UACC-257 melanoma
CAKI-1 renal = system: CAKI-1 renal
A498 renal = system: A498 renal
SR leukemia = system: SR leukemia
SN12K1 renal = system: SN12K1 renal
RPMI-8226 leukemia = system: RPMI-8226 leukemia
NCI/ADR-RES ovarian = system: NCI/ADR-RES ovarian
P388/ADR leukemia = system: P388/ADR leukemia
OVCAR-4 ovarian = system: OVCAR-4 ovarian
P388 leukemia = system: P388 leukemia

In the case of `c1ccc2c(c1)CCc1c-2n[nH]c1-c1[nH]nc2c1CCc1ccccc1-2`, the TGI (ACHN renal) is reported as > 100000 nM, the TGI (SK-MEL-5 melanoma) is reported as > 100000 nM and the TGI (HCC-2998 colon) is reported as > 100000 nM. For the same compound, the TGI (MOLT-4 leukemia) was > 100000 nM, the TGI (SW-620 colon) was > 100000 nM and the TGI (OVCAR-5 ovarian) was > 100000 nM. The TGI (DMS 273 small cell lung) was > 100000 nM, the TGI (786-0 renal) was > 100000 nM and the TGI (EKVX NSCLC) was > 100000 nM. For the same compound, the TGI (NCI-H460 lung) was > 100000 nM, the TGI (CCRF-CEM leukemia) was > 100000 nM and the TGI (LXFL 529 NSCLC) was > 100000 nM. For the same compound, the TGI (MALME-3M melanoma) was > 100000 nM, the TGI (UO-31 renal) was > 100000 nM and the TGI (HT29 colon) was > 100000 nM. The TGI (XF 498 CNS) was > 100000 nM, the TGI (SK-OV-3 ovarian) was > 100000 nM and the TGI (HCT-15 colon) was > 100000 nM. For the same compound, the TGI (SN12C renal) was > 100000 nM, the TGI (IGROV1 ovarian) was > 100000 nM and the TGI (TK-10 renal) was > 100000 nM. For the same compound, the TGI (NCI-H226 lung) was > 100000 nM, the TGI (M14 melanoma) was > 100000 nM and the TGI (HCT-116 colon) was > 100000 nM. For the same compound, the TGI (KM20L2 colon) was > 100000 nM, the TGI (M19-MEL melanoma) was > 100000 nM and the TGI (A549 NSCLC) was > 100000 nM. For the same compound, the TGI (RXF-631 renal) was > 100000 nM, the TGI (COLO 205 colon) was > 100000 nM and the TGI (SF-295 CNS) was > 100000 nM. For the same compound, the TGI (U251 CNS) was > 100000 nM, the TGI (HOP-18 NSCLC) was > 100000 nM and the TGI (SNB-78 CNS) was > 100000 nM. The TGI (NCI-H23 lung) was > 100000 nM, the TGI (SF-539 CNS) was > 100000 nM and the TGI (HL-60(TB) leukemia) was > 100000 nM. For the same compound, the TGI (SNB-19 CNS) was > 100000 nM, the TGI (UACC-62 melanoma) was > 100000 nM and the TGI (DMS 114 small cell lung) was > 100000 nM. For the same compound, the TGI (SF-268 CNS) was > 100000 nM, the TGI (KM12 colon) was > 100000 nM and the TGI (LOX IMVI melanoma) was > 100000 nM. The TGI (DLD-1 colon) was > 100000 nM, the TGI (SK-MEL-2 melanoma) was > 100000 nM and the TGI (SNB-75 CNS) was > 100000 nM. The TGI (SK-MEL-28 melanoma) was > 100000 nM, the TGI (HOP-62 NSCLC) was > 100000 nM and the TGI (OVCAR-8 ovarian) was > 100000 nM. The TGI (K-562 leukemia) was > 100000 nM, the TGI (OVCAR-3 ovarian) was > 100000 nM and the TGI (HOP-92 NSCLC) was > 100000 nM. For the same compound, the TGI (UACC-257 melanoma) was > 100000 nM, the TGI (CAKI-1 renal) was > 100000 nM and the TGI (A498 renal) was > 100000 nM. For the same compound, the TGI (SR leukemia) was > 100000 nM.
In the case of `O=C1N[C@@H]2C(=C[C@H](O)[C@@H](O)[C@H]2O)c2cc3c(c(O)c21)OCO3`, the TGI (SN12K1 renal) is reported as 100 nM, the TGI (SK-MEL-5 melanoma) is reported as 77.4 nM and the TGI (HCC-2998 colon) is reported as 68.1 nM. For the same compound, the TGI (MOLT-4 leukemia) was 296 nM, the TGI (RPMI-8226 leukemia) was 85.8 nM and the TGI (SW-620 colon) was 2670 nM. For the same compound, the TGI (OVCAR-5 ovarian) was 294 nM, the TGI (DMS 273 small cell lung) was 145 nM and the TGI (EKVX NSCLC) was 74.3 nM. For the same compound, the TGI (NCI-H460 lung) was 119 nM, the TGI (CCRF-CEM leukemia) was 510 nM and the TGI (MALME-3M melanoma) was 53.5 nM. It also gave a TGI (UO-31 renal) of 95.5 nM, a TGI (HT29 colon) of 172 nM and a TGI (XF 498 CNS) of 54.1 nM. The TGI (SK-OV-3 ovarian) was 246 nM, the TGI (HCT-15 colon) was 8160 nM and the TGI (SN12C renal) was 122 nM. It also gave a TGI (IGROV1 ovarian) of 151 nM, a TGI (NCI-H226 lung) of 87.6 nM and a TGI (HCT-116 colon) of 56.9 nM. It also gave a TGI (KM20L2 colon) of 315 nM, a TGI (M19-MEL melanoma) of 77.1 nM and a TGI (A549 NSCLC) of 306 nM. It also gave a TGI (SF-295 CNS) of 245 nM, a TGI (U251 CNS) of 394 nM and a TGI (HOP-18 NSCLC) of 281 nM. The TGI (SNB-78 CNS) was 399 nM, the TGI (NCI-H23 lung) was 129 nM and the TGI (SF-539 CNS) was 48.6 nM. The TGI (NCI/ADR-RES ovarian) was 97.2 nM, the TGI (HL-60(TB) leukemia) was 86.2 nM and the TGI (SNB-19 CNS) was 66.5 nM. The TGI (UACC-62 melanoma) was 58.7 nM, the TGI (P388/ADR leukemia) was 450 nM and the TGI (SF-268 CNS) was 116 nM. The TGI (KM12 colon) was 405 nM, the TGI (LOX IMVI melanoma) was 65 nM and the TGI (DLD-1 colon) was 75.1 nM. The TGI (SK-MEL-2 melanoma) was 49.9 nM, the TGI (SNB-75 CNS) was 81.3 nM and the TGI (SK-MEL-28 melanoma) was 94.4 nM. The TGI (HOP-62 NSCLC) was 53.8 nM, the TGI (OVCAR-4 ovarian) was 537 nM and the TGI (OVCAR-8 ovarian) was 61.3 nM. It also gave a TGI (K-562 leukemia) of 95.5 nM, a TGI (OVCAR-3 ovarian) of 63.9 nM and a TGI (P388 leukemia) of 969 nM. For the same compound, the TGI (HOP-92 NSCLC) was 272 nM, the TGI (UACC-257 melanoma) was 88 nM and the TGI (CAKI-1 renal) was 73.5 nM. The TGI (A498 renal) was 106 nM.
